Here are results for three compounds from patent US10391070B2, “Compositions and methods for treating neurological diseases or injury” (MUSC FOUNDATION FOR RESEARCH DEVELOPMENT, priority 2012, dated 2019).

The test system of data set [1] is corneal kindled seizures. Put plainly: Corneal kindled mouse model. It is filed as in vivo. The note with it: mice, 100 mg/kg i.p., 0.25 hrs. The method, then: Mouse studies were performed by NIH Anticonvulsant Screening Program at the National Institute of Neurological Disorders and Stroke (Stables and Kupferberg, 1997) according to the established NIH experimental procedures outlined below. Compounds were delivered into mice by i.p. injection at a dose of 100 mg/kg in sterile 5% DMSO, 95% Neobee (Josey et al., 2013). One of four methods for seizure induction was subsequently administered to mice at 0.25, 0.5, 1, 2 and 4 h after treatment with compound. (1) Subcutaneous PTZ seizure threshold test. PTZ was administered at a concentration of 85 mg/kg, into the loose fold of skin in the midline of the neck. […] (2) Maximal electroshock test. 60 Hz of 50 mA alternating current was delivered for 0.2 s by corneal electrodes. Mice were considered protected from seizures when the hindlimb tonic extensor was absent (White et al., 1995). (3) Minimal clonic seizure (6 Hz) test. 6 Hz of 32 mA or 44 mA alternating current was delivered for 3 s by corneal electrodes to elicit a psychomotor seizure. Mice were considered protected from seizures when the automatistic behaviors were absent (Barton et al., 2001). (4) Corneal kindled mouse model. […]

The nature of data set [2]: Chronic toxicity evaluation in mice (blood count and chemistry). The note with it: for blood count and chemistry parameters versus vehicle / weight loss, signs of pain or distress: mice, 50 mg/kg i.p. daily, three weeks. The class given is in vivo, mouse. As to the method: Adult (12 weeks of age) mice (Balb/cByJ, 17-20 g, Jackson Laboratory), were housed in temperature-controlled conditions under a light/dark photocycle with food and water supplied ad libitum. Mice were divided randomly into three groups. The first group (n=3) was injected i.p. with compound 2q at 50 mg/kg dissolved in sterile 5% DMSO, 95% Neobee (Spectrum Chemical) (Allen et al., 2006). The second group (n=3) was injected i.p. with compound 2j at 50 mg/kg dissolved in sterile 5% DMSO, 95% Neobee. The third, vehicle control group (n=2) was injected i.p. with an equivalent volume of sterile 5% DMSO, 95% Neobee. All animals were injected between 11:00 a.m. and 12:00 p.m. Animals were sacrificed by CO2 after three weeks of injections. Blood was collected by cardiac puncture and standard blood count and chemistry was evaluated by the MUSC/VA Veterinary Diagnostic Laboratory (Charleston, S.C.). All animal and treatment protocols were in compliance with the Guide for the Care and Use of Laboratory Animals as adopted and promulgated by the National Institutes of Health (Institute of Laboratory Animal Resources, 1996).
Preliminary in vivo toxicity was assessed for compounds 2q and 2j in mice. […] Adult mice were injected intraperitoneally (i.p.) daily. […] After three weeks of chronic, high dose injections, animals were sacrificed and standard blood count and chemistry analyses performed.

The nature of data set [3]: Presence in mouse brain by LC-MS. The conditions noted are these: mice, i.p. daily for three weeks, brain 2 hours after final injection. The class given is in vivo. The method, then: VK2 is synthesized in situ where it is needed. […] Utilizing small synthetic VK analog that can perform similarly to VK2 is of novelty for epileptic treatment. Mice were under I.P. daily injection of 2q for three weeks and their brains were harvested 2 hours after the final injection. The mouse brains were extracted with organic solvent. The presence and the level of 2q were determined using LC-MS techniques (FIG. 9). The presence of 2q was detected via mass spectrometry in the mice brain 2 hours after i.p. injections.

[4] abbreviates: mouse blood chemistry, 50 mg/kg, 3 wks i.p., individual animals 1-3.
Where [5] appears, read: mouse complete blood count, 50 mg/kg, 3 wks i.p., individual animals 1-3.

Where “and” joins values, the source holds several entries; their conditions need not be identical. Equal values may be shown once.

For the compound `C#CCNC1=CC(=O)c2ccccc2C1=O` [Compound 2h, 2-(prop-2-yn-1-ylamino)naphthalene-1,4-dione], in data set [1], the Avg seizure score is 3.75 and the “N/F (animals protected/animals tested)” value was 2/4.
In the case of `O=C1C=C(NCc2ccccc2)C(=O)c2ccccc21` [Compound 2j, 2-(benzylamino)naphthalene-1,4-dione], in data set [2], the “blood count and chemistry parameters versus vehicle” value is recorded as “consistent with those of the vehicle control group”; the “weight loss, signs of pain or distress” value is listed as “no weight loss or outward signs of pain or distress”.
As to `O=C1C=C(NCc2cccc(Cl)c2)C(=O)c2ccccc21` [Compound 2q, 2-((3-chlorobenzyl)amino)naphthalene-1,4-dione], in data set [2], the “blood count and chemistry parameters versus vehicle” value was “consistent with those of the vehicle control group”; the “weight loss, signs of pain or distress” value is “no weight loss or outward signs of pain or distress”. Besides, in data set [2] (setting [4]), the ALP was 72 U/L and 80 U/L and 60 U/L; the ALT is 34 U/L and 28 U/L and 33 U/L; the AST was 89 U/L and 71 U/L and 78 U/L; the Albumin was 3 g/dL and 3.2 g/dL and 2.8 g/dL. In data set [2] (setting [4]), the BUN is 19 mg/dL (2×) and 20 mg/dL; the Creatinine was 0.16 mg/dL and 0.23 mg/dL and 0.18 mg/dL; the Glucose was 195 mg/dL (2×) and 205 mg/dL; the “Total Bilirubin” value is listed as 0.20 mg/dL. In data set [2] (setting [4]), the “Total Protein” value is 5.2 g/dL and 5.3 g/dL and 4.9 g/dL. Also, in data set [2] (setting [5]), the BA was 0.01 K/uL and 0.05 K/uL and 0.02 K/uL; the EO is 0.10 K/uL and 0.17 K/uL and 0.01 K/uL; the HCT is 51.1% and 53.2% and 51.3%; the Hb was 13.9 g/dL (2×) and 14.5 g/dL. Besides, in data set [2] (setting [5]), the LY was 3.30 K/uL and 5.14 K/uL and 2.45 K/uL; the MCH was 14.8 pg (2×) and 15.3 pg; the MCHC is 27.2 g/dL and 27.3 g/dL and 27.1 g/dL; the MCV is 54.4 fL and 56.2 fL and 54.8 fL. Besides, in data set [2] (setting [5]), the MO was 0.32 K/uL and 0.43 K/uL and 0.35 K/uL; the MPV was 4.5 fL and 4.6 fL and 4.4 fL; the NE is 5.55 K/uL and 3.03 K/uL and 3.78 K/uL; the PLT was 1139 K/uL and 946 K/uL and 1050 K/uL. In addition, in data set [2] (setting [5]), the RBC was 9.39 M/uL and 9.46 M/uL and 9.37 M/uL; the RDW was 17.8% and 17.7% and 17.4%; the WBC was 9.28 K/uL and 8.82 K/uL and 6.62 K/uL. The “presence in brain (LC-MS)” value in data set [3] is on record as “detected”.
